Measured values: the NIST ThermoML archive (doi:10.1016/j.jct.2010.08.019)

Experiment: xn = mol fraction of the nth substance listed
Details: for surface tension liquid-gas: Wilhelmy-plate method; for viscosity / mass density: 101 kPa, Liquid; for viscosity: Falling or rolling sphere viscometry; for mass density: Vibrating tube method

CC(C)CC(C)(C)C [2,2,4-trimethylpentane] + CC(C)O
Details | mass density [kg/m3] | surface tension liquid-gas [mN/m] | viscosity [mPa·s]
293.15 K, x2 = 0 | 691.98 | 18.8 | 0.503
293.15 K, x2 = 0.0501 | 693.38 | – | 0.502
293.15 K, x2 = 0.1006 | 695.3 | 18.8 | 0.509
293.15 K, x2 = 0.1512 | 697.45 | – | 0.517
293.15 K, x2 = 0.2003 | 699.71 | 18.9 | 0.53
293.15 K, x2 = 0.2501 | 702.18 | – | 0.543
293.15 K, x2 = 0.3003 | 704.91 | 19 | 0.563
293.15 K, x2 = 0.3502 | 707.91 | – | 0.593
293.15 K, x2 = 0.4004 | 711.2 | 19 | 0.628
293.15 K, x2 = 0.4502 | 714.74 | – | 0.662
293.15 K, x2 = 0.5001 | 718.61 | 19.2 | 0.699
293.15 K, x2 = 0.55 | 722.8 | – | 0.755
293.15 K, x2 = 0.5998 | 727.34 | 19.3 | 0.82
293.15 K, x2 = 0.6502 | 732.45 | – | 0.906
293.15 K, x2 = 0.7002 | 737.93 | 19.6 | 1.004
293.15 K, x2 = 0.7499 | 743.9 | – | 1.12
293.15 K, x2 = 0.7999 | 750.57 | 20 | 1.264
293.15 K, x2 = 0.85 | 757.91 | – | 1.439
293.15 K, x2 = 0.8999 | 766.04 | 20.6 | 1.666
293.15 K, x2 = 0.95 | 775.2 | – | 1.96
303.15 K, x2 = 0 | 683.61 | 17.9 | 0.447
303.15 K, x2 = 0.05 | 684.93 | – | 0.444
303.15 K, x2 = 0.1 | 686.65 | 17.9 | 0.45
303.15 K, x2 = 0.1499 | 688.68 | – | 0.457
303.15 K, x2 = 0.2004 | 690.94 | 17.9 | 0.464
303.15 K, x2 = 0.2497 | 693.36 | – | 0.474
303.15 K, x2 = 0.3 | 696.11 | 18 | 0.491
303.15 K, x2 = 0.3499 | 699.03 | – | 0.508
303.15 K, x2 = 0.4008 | 702.3 | 18 | 0.532
303.15 K, x2 = 0.4503 | 705.79 | – | 0.558
303.15 K, x2 = 0.5 | 709.61 | 18.1 | 0.589
303.15 K, x2 = 0.5498 | 713.82 | – | 0.633
303.15 K, x2 = 0.6001 | 718.44 | 18.3 | 0.682
303.15 K, x2 = 0.65 | 723.45 | – | 0.745
303.15 K, x2 = 0.7001 | 728.94 | 18.6 | 0.814
303.15 K, x2 = 0.7495 | 734.92 | – | 0.899
303.15 K, x2 = 0.7989 | 741.51 | 19 | 0.995
303.15 K, x2 = 0.8499 | 748.97 | – | 1.158
303.15 K, x2 = 0.8997 | 757.15 | 19.6 | 1.307
303.15 K, x2 = 0.95 | 766.32 | – | 1.485
313.15 K, x2 = 0 | 675.23 | 16.9 | 0.404
313.15 K, x2 = 0.0499 | 676.34 | – | 0.398
313.15 K, x2 = 0.1001 | 677.92 | 16.9 | 0.401
313.15 K, x2 = 0.1503 | 679.86 | – | 0.405
313.15 K, x2 = 0.2001 | 682.09 | 16.9 | 0.412
313.15 K, x2 = 0.2499 | 684.47 | – | 0.42
313.15 K, x2 = 0.3003 | 687.15 | 17 | 0.43
313.15 K, x2 = 0.3497 | 689.97 | – | 0.449
313.15 K, x2 = 0.4 | 693.18 | 17.1 | 0.458
313.15 K, x2 = 0.4502 | 696.67 | – | 0.476
313.15 K, x2 = 0.5005 | 700.49 | 17.2 | 0.5
313.15 K, x2 = 0.5499 | 704.67 | – | 0.529
313.15 K, x2 = 0.6 | 709.23 | 17.5 | 0.569
313.15 K, x2 = 0.6498 | 714.27 | – | 0.61
313.15 K, x2 = 0.6999 | 719.71 | 17.8 | 0.657
313.15 K, x2 = 0.75 | 725.83 | – | 0.719
313.15 K, x2 = 0.7998 | 732.49 | 18.2 | 0.782
313.15 K, x2 = 0.8498 | 739.89 | – | 0.87
313.15 K, x2 = 0.8999 | 748.21 | 18.8 | 0.987
313.15 K, x2 = 0.9499 | 757.39 | – | 1.129
323.15 K, x2 = 0 | 666.8 | 16.2 | 0.365
323.15 K, x2 = 0.0501 | 667.65 | – | 0.359
323.15 K, x2 = 0.1 | 669.08 | 16.2 | 0.36
323.15 K, x2 = 0.15 | 670.98 | – | 0.366
323.15 K, x2 = 0.1998 | 673.08 | 16.2 | 0.37
323.15 K, x2 = 0.25 | 675.42 | – | 0.375
323.15 K, x2 = 0.3 | 677.99 | 16.2 | 0.383
323.15 K, x2 = 0.35 | 680.86 | – | 0.392
323.15 K, x2 = 0.4 | 683.93 | 16.3 | 0.403
323.15 K, x2 = 0.4499 | 687.34 | – | 0.417
323.15 K, x2 = 0.5 | 691.07 | 16.4 | 0.433
323.15 K, x2 = 0.5501 | 695.17 | – | 0.456
323.15 K, x2 = 0.6 | 699.74 | 16.7 | 0.479
323.15 K, x2 = 0.65 | 704.78 | – | 0.508
323.15 K, x2 = 0.7 | 710.22 | 17 | 0.544
323.15 K, x2 = 0.7499 | 716.22 | – | 0.588
323.15 K, x2 = 0.7999 | 722.88 | 17.4 | 0.632
323.15 K, x2 = 0.85 | 730.48 | – | 0.696
323.15 K, x2 = 0.9 | 738.82 | 18 | 0.776
323.15 K, x2 = 0.95 | 748.16 | – | 0.875
